Source: ChEMBL document CHEMBL5150050, “Hybrids of small CD4 mimics and gp41-related peptides as dual-target HIV entry inhibitors” (Bioorg Med Chem, 2022)
Where a SMILES comes first, the peptide text is derived from it. [ ]: non-standard residue; d: D form. Nle = CCCC[C@H](N)C(=O)O

Assays:
[1] = tested on: Human immunodeficiency virus 1; assay: Antiviral activity against HIV-1 KP-5mvcR infected in human TZM-bl cells assessed as inhibition of viral entry by measuring reduction in RLU by single round assay; type: functional, organism-based; conditions: Human immunodeficiency virus 1, KP-5mvcR
[2] = tested on: TZM; assay: Cytotoxicity against human TZM-bl cells; type: toxicity, cell-based
[3] = tested on: Human immunodeficiency virus 1; assay: Antiviral activity against HIV-1 KP-5mvcR infected in human TZM-bl cells assessed as inhibition of viral entry by measuring reduction in RLU at 10 nM by single round assay relative to control; type: functional; parameters: scale not given: the % may be the effect or the level left

Row | IC50 [1] | Compound | Activity [2] | Activity [3]
1 | 5.5 nM | CCCC[C@H](NC(=O)[C@H](Cc1c[nH]c2ccccc12)NC(C)=O)C(=O)N[C@@H](CCC(=O)O)C(=O)N[C@@H](Cc1c[nH]c2ccccc12)C(=O)N[C@@H](CC(=O)O)C(=O)N[C@@H](CCCNC(=N)N)C(=O)N[C@@H](CCCCN)C(=O)N[C@H](C(=O)N[C@@H](CCC(=O)O)C(=O)N[C@@H](CCC(=O)O)C(=O)N[C@@H](Cc1ccc(O)cc1)C(=O)N[C@H](C(=O)N[C@@H](CCCCN)C(=O)N[C@@H](CCCCN)C(=O)N[C@H](C(=O)N[C@@H](CCCCN)C(=O)N[C@@H](CCCCN)C(=O)N[C@@H](CC(C)C)C(=O)N[C@H](C(=O)N[C@@H](CCC(=O)O)C(=O)N[C@@H](CCC(=O)O)C(=O)N[C@@H](CO)C(=O)N[C@@H](CCC(N)=O)C(=O)N[C@@H](CCC(=O)O)C(=O)N[C@@H](CCC(N)=O)C(=O)N[C@@H](CCC(N)=O)C(=O)N[C@@H](CCC(=O)O)C(=O)N[C@@H](CCCCN)C(=O)N[C@@H](CC(N)=O)C(=O)N[C@@H](CCC(=O)O)C(=O)N[C@@H](CCCCN)C(=O)N[C@@H](CCC(=O)O)C(=O)N[C@@H](CC(C)C)C(=O)N[C@@H](CCCCN)C(=O)N[C@H](CSCC(=O)NCc1cn(CCCC[C@H](NC(=O)[C@H](CO)NC(=O)CNC(=O)CNC(=O)CNC(=O)CNC(=O)CCC(=O)N[C@@H](CCCNC(=N)N)C(=O)NCCN2CCC(NC(=O)C(=O)Nc3ccc(Cl)cc3)CC2)C(N)=O)nn1)C(N)=O)[C@@H](C)CC)[C@@H](C)CC)[C@@H](C)O)[C@@H](C)CC |  | 
2 | 145 nM | N=C(N)NCCCCC(=O)NCCN1CCC(NC(=O)C(=O)Nc2ccc(Cl)cc2)CC1 | Non-Toxic | 
3 | 60 nM | Ac-WEEWDKKIEEYTKKIEELIKKS-NH2 | Non-Toxic | 
4 | 11 nM | O=C1Nc2ccc(Cl)cc2[C@@](C#CC2CC2)(C(F)(F)F)O1 [EFAVIRENZ] |  | 
5 | 150 nM | CC[C@H](C)[C@H](NC(=O)[C@H](CCCCN)NC(=O)[C@H](CCCCN)NC(=O)[C@H](CC(=O)O)NC(=O)[C@H](Cc1c[nH]c2ccccc12)NC(=O)[C@H](CCC(=O)O)NC(=O)[C@H](CCC(=O)O)NC(=O)[C@H](Cc1c[nH]c2ccccc12)NC(C)=O)C(=O)N[C@@H](CCC(=O)O)C(=O)N[C@@H](CCC(=O)O)C(=O)N[C@@H](Cc1ccc(O)cc1)C(=O)N[C@H](C(=O)N[C@@H](CCCCN)C(=O)N[C@@H](CCCCN)C(=O)N[C@H](C(=O)N[C@@H](CCC(=O)O)C(=O)N[C@@H](CCC(=O)O)C(=O)N[C@@H](CC(C)C)C(=O)N[C@H](C(=O)N[C@@H](CCCCN)C(=O)N[C@@H](CCCCN)C(=O)N[C@@H](CO)C(=O)N[C@H](CSCC(=O)NCCCC[C@H](NC(=O)[C@H](CO)NC(=O)CNC(=O)CNC(=O)CNC(=O)CNC(=O)CCC(=O)N[C@@H](CCCNC(=N)N)C(=O)NCCN1CCC(NC(=O)C(=O)Nc2ccc(Cl)cc2)CC1)C(N)=O)C(N)=O)[C@@H](C)CC)[C@@H](C)CC)[C@@H](C)O |  | 
6 | < 10 nM | CCCC[C@H](NC(=O)[C@H](Cc1c[nH]c2ccccc12)NC(C)=O)C(=O)N[C@@H](CCC(=O)O)C(=O)N[C@@H](Cc1c[nH]c2ccccc12)C(=O)N[C@@H](CC(=O)O)C(=O)N[C@@H](CCCNC(=N)N)C(=O)N[C@@H](CCCCN)C(=O)N[C@H](C(=O)N[C@@H](CCC(=O)O)C(=O)N[C@@H](CCC(=O)O)C(=O)N[C@@H](Cc1ccc(O)cc1)C(=O)N[C@H](C(=O)N[C@@H](CCCCN)C(=O)N[C@@H](CCCCN)C(=O)N[C@H](C(=O)N[C@@H](CCCCN)C(=O)N[C@@H](CCCCN)C(=O)N[C@@H](CC(C)C)C(=O)N[C@H](C(=O)N[C@@H](CCC(=O)O)C(=O)N[C@@H](CCC(=O)O)C(=O)N[C@@H](CO)C(=O)N[C@@H](CCC(N)=O)C(=O)N[C@@H](CCC(=O)O)C(=O)N[C@@H](CCC(N)=O)C(=O)N[C@@H](CCC(N)=O)C(=O)N[C@@H](CCC(=O)O)C(=O)N[C@@H](CCCCN)C(=O)N[C@@H](CC(N)=O)C(=O)N[C@@H](CCC(=O)O)C(=O)N[C@@H](CCCCN)C(=O)N[C@@H](CCC(=O)O)C(=O)N[C@@H](CC(C)C)C(=O)N[C@@H](CCCCN)C(=O)N[C@H](CSCC(=O)NCCCC[C@H](NC(=O)[C@H](CO)NC(=O)CNC(=O)CNC(=O)CNC(=O)CNC(=O)CCC(=O)N[C@@H](CCCNC(=N)N)C(=O)NCCN1CCC(NC(=O)C(=O)Nc2ccc(Cl)cc2)CC1)C(N)=O)C(N)=O)[C@@H](C)CC)[C@@H](C)CC)[C@@H](C)O)[C@@H](C)CC |  | 95.6%

Row | Compound | IC50 [1] | Activity [2] | Activity [3]
7 | enfuvirtide | 32 nM |  | 
8 | CCCC[C@H](NC(=O)[C@H](Cc1c[nH]c2ccccc12)NC(C)=O)C(=O)N[C@@H](CCC(=O)O)C(=O)N[C@@H](Cc1c[nH]c2ccccc12)C(=O)N[C@@H](CC(=O)O)C(=O)N[C@@H](CCCNC(=N)N)C(=O)N[C@@H](CCCCN)C(=O)N[C@H](C(=O)N[C@@H](CCC(=O)O)C(=O)N[C@@H](CCC(=O)O)C(=O)N[C@@H](Cc1ccc(O)cc1)C(=O)N[C@H](C(=O)N[C@@H](CCCCN)C(=O)N[C@@H](CCCCN)C(=O)N[C@H](C(=O)N[C@@H](CCCCN)C(=O)N[C@@H](CCCCN)C(=O)N[C@@H](CC(C)C)C(=O)N[C@H](C(=O)N[C@@H](CCC(=O)O)C(=O)N[C@@H](CCC(=O)O)C(=O)N[C@@H](CO)C(=O)N[C@@H](CCC(N)=O)C(=O)N[C@@H](CCC(=O)O)C(=O)N[C@@H](CCC(N)=O)C(=O)N[C@@H](CCC(N)=O)C(=O)N[C@@H](CCC(=O)O)C(=O)N[C@@H](CCCCN)C(=O)N[C@@H](CC(N)=O)C(=O)N[C@@H](CCC(=O)O)C(=O)N[C@@H](CCCCN)C(=O)N[C@@H](CCC(=O)O)C(=O)N[C@@H](CC(C)C)C(=O)N[C@@H](CCCCN)C(N)=O)[C@@H](C)CC)[C@@H](C)CC)[C@@H](C)O)[C@@H](C)CC (Ac-W[Nle]EWDRKIEEYTKKIKKLIEESQEQQEKNEKELK-NH2) | 0.64 nM | Non-Toxic | 
